Some results are limits rather than exact numbers.

Data set [1] has as its system FPf1T (plasmodium telomeric quadruplex-DNA). Nature of the data set: FRET-melting assay with FPf1T. As to conditions: 0.2 μM FPf1T, 1 μM compound. In kind it is binding, Plasmodium falciparum. As to the method: (§1) Stabilization, and so interaction, of compounds with quadruplex-structure is monitored via FRET-melting assay, in a version that also enables the determination of the quadruplex-over duplex-DNA selectivity as well as the intra-quadruplex selectivity (17).
(§2) FRET assay is performed with oligonucleotides that mimic the human or plasmodium telomeric sequences, and equipped with FRET partners at each extremities: F21T (FAM-G3[T2AG3]3-Tamra,) FPf1T (FAM-G3[T3AG3]3-Tamra) and FPf8T (FAM-G3[T2CAG3]3-Tamra) with FAM: 6-carboxyfluorescein and Tamra: 6-carboxy-tetramethylrhodamine). Measurements were made with excitation at 492 nm and detection at 516 nm.
(§3) Fluorescence melting were carried out. The results are given on FIG. 3A-FIG. 3C. The experiments were carried out with 0.2 μM of F21T, FPf1T or FPf8T in a buffer containing 10 mM lithium cacodylate pH 7.2 and 100 mM NaCl or KCl (see example of F21T below, NaCl (left) and KCl (right)); the melting of the quadruplex-DNA was monitored alone and in the presence of 1 μM (5 equiv.) of compound 3.

Data set [2] deals with FPf8T (plasmodium telomeric quadruplex-DNA). In words: FRET-melting assay with FPf8T. The class given is binding, Plasmodium falciparum. To be noted: 0.2 μM FPf8T, 1 μM compound. The protocol:
as §1, §2, §3

A further data set has as its system c-myc quadruplex-DNA. Nature of the data set: Fluorescence titration with c-myc. The class given is binding. As to conditions: 0.25 μM compound, cacodylate buffer + 100 mM KCl, λex=340 nm. The protocol:
(§4) The intra-quadruplex selectivity is evaluated through fluorescence titrations by comparison of experiments carried out with 22AG (see above) and with two other quadruplex-structures: c-myc and c-kit2. The formation of these two quadruplex-DNAs is currently highly suspected in the promoter region of c-myc (see above) and c-kit (22; 29 and 30)oncogenes. The sequences are the following: c-myc: [5′-[…]-3′] and c-kit2: [(5′-[…]-3′]; Quadruplex-structures are prepared by heating the corresponding oligonucleotide at 90° C. for 5 min in a 10 mM sodium cacodylate buffer pH 7.2, 100 mM KCl and cooling in ice to favor the intramolecular folding by kinetic trapping. Concentrations are determined by UV-Vis measurements (after thermal denaturation, 5 min at 85° C.) at 260 nm before use.

For a further data set, the system named is c-kit2 quadruplex-DNA. In words: Fluorescence titration with c-kit2. The class given is binding. As to conditions: 0.25 μM compound, cacodylate buffer + 100 mM KCl, λex=340 nm. The protocol:
as §4

The next data set relates to 22AG quadruplex-DNA. In words: Circular dichroism with 22AG. In kind it is binding, human. The protocol:
Circular dichroism (CD) enables a deep study of the modification of the DNA structure upon the binding of a ligand; it thus reflects the affinity of the ligand to its target, and can also provide insight into its binding mode (Paramasivan et al, Methods, 2007, 43, 324).
The quadruplex-DNA used herein is 22AG (see above), annealed both in a 10 mM sodium cacodylate buffer pH 7.2, 100 mM NaCl (for 22AG Na) or KCl (for 22AG K). To a 3 μM solution of 22AG in both buffers is added an excess of compound 3 (30 μM, 10 equiv.).
The equilibrium between folded and unfolded forms of 22AG oligonucleotide is highly sensitive to the presence and the nature of the buffer it is used in. In low cationic buffer like 10 mM Tris.HCl, pH 7.2, 22AG is mostly unfolded (random coiled); it is thus possible to influence the folded <-> unfolded equilibrium by adding compound 3. Thus, to a 3 μM solution of random coiled 22AG in Tris.HCl buffer are added increasing amounts of compound 3 (from 0 to 7.5 equiv.); it results in a deep modification of the CD signal of 22AG, with a disappearance of the random coiled-typical 257 nm signal to the benefit of two novel maxima, one positive (near 290 nm) and one negative (near 265 nm), both being typical of the CD signature of ‘anti-parallel’ quadruplex-DNA structure (as 22AG Na, see above).

The next data set addresses hPOT1. Nature of the data set: Electrophoretic mobility shift assay, POT1/22AG binding. To be noted: 30 nM hPOT1, 20 nM 32P-22AG, 30 min room temperature. Also on record: species or system human. The protocol: An electrophoretic mobility shift assay using hPOT1 was performed on the telomeric 22AG oligonucleotide (see above). 22AG was labeled at the 5′ end with [γ-^32P]-ATP using T4 polynucletide kinase. Purified recombinant hPOT1 was produced in a baculovirus expression system. The POT1/22AG binding assay was performed in a total volume of 10 μl containing 50 mM HEPES, pH 7.9, 100 mM NaCl, 0.1 mM EDTA, 4% w/v sucrose, 2% v/v glycerol, 0.1 mg/ml BSA, 0.02% w/v bromophenol blue, 30 nM hPOT1, 20 nM [[…]-^32P]-22AG. Different concentrations of compound 3 (10, 1, 0.1 and 0.01 μM) were added with hPOT1 to the solution and the mixture was incubated at room temperature for 30 min. Each individual sample was separated by electroporesis on 1% agarose gel in 0.5×Tris-Borate-EDTA buffer. The gel was run at 80V for 35 min, dried on whatman DE81 paper and radiaoactivity visualized by a phosphorimager (Typhoon 9210, Amersham). Analysis of the data was carried out by ImageQuant software (Amersham) and results were expressed as a percentage of the POT1-22AG complex obtained in the untreated control (defined as 100%) (see FIG. 14).
(In EMSA bound probe runs differently from free probe, usually more slowly.)

For data set [3], the system named is HT1080GFP-POT1 human fibrosarcoma and U20S human osteosarcoma cells. Nature of the data set: Inhibition of cell proliferation, viable cell count with trypan blue. The class given is cell-based. To be noted: 72 hours, read-out: IC50 proliferation of cancer cells. The protocol: The HT1080 human fibrosarcoma cell line stably transfected with pEGFP-POT1 vector (HT1080GFP-POT1) has been previously described (32) and U20S human osteosarcoma was from American Type Culture Collection (Rockville, USA). Cells were grown in Dublecco's modified Eagles's medium (Invitrogen) supplemented with 10% v/v fetal bovine serum and with 400 μg/ml geneticin for HT1080GFP-POT1. Cells were plated in 6-wells culture plates on day 0 at 4.5×10^4 cells/well in the presence of different concentrations of compound 3 (10, 3, 1, 0.3 and 0.1 μM), each concentration in duplicate, and cultured for further 72 hours. At day 3, cells were washed with 1×PBS and trypsinized. For each treated cell sample, the number of viable cells was determined in the presence of trypan blue. Results are given on FIG. 15A and FIG. 15B. They correspond to the relative cell number in percent as compared to control untreated cells defined as 100%.

Usually melting point stands for the temperature of the solid-liquid transition. `c1cc(-c2cnc(-c3cccc(-c4cnco4)n3)o2)nc(-c2cnc(-c3cccc(-c4cnco4)n3)o2)c1` [compound 3, 2,6-bis{2-[6-(oxazol-5-yl)pyridin-2-yl]oxazol-5-yl}pyridine]: the melting point was more than 250 °C. Further, the “ΔT1/2 FPf1T” value in data set [1] (K+ (100 mM KCl)) was found to be 2.1 °C. The “ΔT1/2 FPf1T” value in data set [1] (Na+ (100 mM NaCl)) is 20.4 °C. For the same compound, the “ΔT1/2 FPf8T” value in data set [2] (K+ (100 mM KCl)) stood at 1.5 °C. Further, the “ΔT1/2 FPf8T” value in data set [2] (Na+ (100 mM NaCl)) was 16.3 °C. Besides, the “fluorescence of compound upon addition of c-myc” value in the data set on c-myc quadruplex-DNA is given as “progressive quench of the fluorescence”. In the data set on c-kit2 quadruplex-DNA, the “fluorescence of compound upon addition of c-kit2” value is on record as “progressive quench of the fluorescence”. In the data set with 22AG quadruplex-DNA (3 μM 22AG, 30 μM compound (10 equiv.), 100 mM KCl, 263 nm), the “CD signal of 22AG K” value is recorded as “reorganises completely the structure”. In the data set with 22AG quadruplex-DNA (3 μM 22AG, 30 μM compound (10 equiv.), 100 mM NaCl, 263 nm), the “CD signal of 22AG Na” value is given as “modification of the amplitude of the CD signal”. The “quadruplex-structure induction (folded/unfolded equilibrium of 22AG)” value in the data set on 22AG quadruplex-DNA (3 μM random coiled 22AG in 10 mM Tris.HCl pH 7.2, 0 to 7.5 equiv. compound) was “able to shift the equilibrium between the unfolded and the folded form of 22AG toward the folded one”. The IC50 at hPOT1 amounted to 300 nM. Further, the IC50 in data set [3] lay within 100 to 1000 nM.

(Values after patent US20110201648A1, “POLY-HETEROARYL DERIVATIVES FOR THE TREATMENT OF CANCER” (INSTITUT CURIE, priority 2008, published 2011).)
